Columns and labels:
Experiment in all cases: relative viability (nuclei count vs DMSO), 5 days (fraction); higher = more cells survive
[1] = tested on: NCI-H1755
Summary of the method: (§1)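 Relative viability was taken as the ratio of nuclei in treated wells to nuclei in vehicle wells. Lung cancer cell lines in 1536-well plates received compounds by pin tool one day after seeding, either one drug alone or a fixed anchor-drug dose plus five library-drug doses (not always all listed) in √10 steps. Nuclei were counted on 4× images after 5 days of treatment, and values are medians of duplicate plates.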

[2] = tested on: NCI-H1793
Summary of the method: as §1

[3] = tested on: NCI-H1993
Summary of the method: as §1

[4] = tested on: NCI-H2347
Summary of the method: as §1

[5] = tested on: COR-L23
Summary of the method: as §1

[6] = tested on: PC-14
Summary of the method: as §1

[7] = tested on: NCI-H2009
Summary of the method: as §1

[8] = tested on: HARA
Summary of the method: as §1

[9] = tested on: NCI-H322M
Summary of the method: as §1

[10] = tested on: HOP-62
Summary of the method: as §1

[11] = tested on: NCI-H1395
Summary of the method: as §1

[12] = tested on: NCI-H358
Summary of the method: as §1

[13] = tested on: NCI-H2228
Summary of the method: as §1

[14] = tested on: NCI-H838
Summary of the method: as §1

[15] = tested on: EKVX
Summary of the method: as §1

[16] = tested on: NCI-H1355
Summary of the method: as §1

[17] = tested on: NCI-H1734
Summary of the method: as §1

[18] = tested on: COR-L 105
Summary of the method: as §1

[19] = tested on: NCI-H647
Summary of the method: as §1

[20] = tested on: NCI-H2170
Summary of the method: as §1

[21] = tested on: UMC-11
Summary of the method: as §1

[22] = tested on: SK-MES-1
Summary of the method: as §1

For Clc1ccc(Nc2nnc(Cc3ccncc3)c3ccccc23)cc1 [Vatalanib] + Cc1nc(NC(=O)N2CCC[C@H]2C(N)=O)sc1-c1ccnc(C(C)(C)C(F)(F)F)c1 [Alpelisib] (partner 2 µM), the relative viability ([1]; first compound 0.04 µM) was 0.946, the relative viability ([1]; first compound 0.1265 µM) was 0.895 and the relative viability ([1]; first compound 0.4 µM) was 0.977. The relative viability ([1]; first compound 1.265 µM) was 0.857, the relative viability ([1]; first compound 4 µM) was 0.906 and the relative viability ([2]; first compound 0.04 µM) was 0.554. The relative viability ([2]; first compound 0.1265 µM) was 0.659, the relative viability ([2]; first compound 0.4 µM) was 0.569 and the relative viability ([2]; first compound 1.265 µM) was 0.635. For the same compound, the relative viability ([2]; first compound 4 µM) was 0.647, the relative viability ([3]; first compound 0.04 µM) was 0.581 and the relative viability ([3]; first compound 0.1265 µM) was 0.68. For the same compound, the relative viability ([3]; first compound 0.4 µM) was 0.678, the relative viability ([3]; first compound 1.265 µM) was 0.634 and the relative viability ([3]; first compound 4 µM) was 0.707. It also gave a relative viability ([4]; first compound 0.04 µM) of 1.05, a relative viability ([4]; first compound 0.1265 µM) of 1.13 and a relative viability ([4]; first compound 0.4 µM) of 1.03. It also gave a relative viability ([4]; first compound 1.265 µM) of 0.963, a relative viability ([4]; first compound 4 µM) of 1.03 and a relative viability ([5]; first compound 0.04 µM) of 0.769. It also gave a relative viability ([5]; first compound 0.1265 µM) of 0.75, a relative viability ([5]; first compound 0.4 µM) of 1.07 and a relative viability ([5]; first compound 1.265 µM) of 0.665. The relative viability ([5]; first compound 4 µM) was 0.739, the relative viability ([6]; first compound 0.04 µM) was 0.993 and the relative viability ([6]; first compound 0.1265 µM) was 0.9. The relative viability ([6]; first compound 0.4 µM) was 0.97, the relative viability ([6]; first compound 1.265 µM) was 0.904 and the relative viability ([6]; first compound 4 µM) was 0.866. The relative viability ([7]; first compound 0.04 µM) was 1.14, the relative viability ([7]; first compound 0.1265 µM) was 1.07 and the relative viability ([7]; first compound 0.4 µM) was 1.2. It also gave a relative viability ([7]; first compound 1.265 µM) of 1.13, a relative viability ([7]; first compound 4 µM) of 1.22 and a relative viability ([8]; first compound 0.04 µM) of 0.738. The relative viability ([8]; first compound 0.1265 µM) was 0.869, the relative viability ([8]; first compound 0.4 µM) was 0.761 and the relative viability ([8]; first compound 1.265 µM) was 0.831. It also gave a relative viability ([8]; first compound 4 µM) of 0.808, a relative viability ([9]; first compound 0.04 µM) of 0.775 and a relative viability ([9]; first compound 0.1265 µM) of 0.709. It also gave a relative viability ([9]; first compound 0.4 µM) of 0.75, a relative viability ([9]; first compound 1.265 µM) of 0.782 and a relative viability ([9]; first compound 4 µM) of 0.795. It also gave a relative viability ([10]; first compound 0.04 µM) of 0.981, a relative viability ([10]; first compound 0.4 µM) of 1.07 and a relative viability ([10]; first compound 1.265 µM) of 1.12. It also gave a relative viability ([10]; first compound 4 µM) of 0.855, a relative viability ([11]; first compound 0.04 µM) of 1.08 and a relative viability ([11]; first compound 0.1265 µM) of 1.04. For the same compound, the relative viability ([11]; first compound 0.4 µM) was 1.19, the relative viability ([11]; first compound 1.265 µM) was 1.08 and the relative viability ([11]; first compound 4 µM) was 0.971. The relative viability ([12]; first compound 0.04 µM) was 0.88, the relative viability ([12]; first compound 0.1265 µM) was 0.741 and the relative viability ([12]; first compound 0.4 µM) was 1.09. It also gave a relative viability ([12]; first compound 1.265 µM) of 0.824, a relative viability ([12]; first compound 4 µM) of 0.876 and a relative viability ([13]; first compound 0.04 µM) of 0.691. The relative viability ([13]; first compound 0.1265 µM) was 0.728, the relative viability ([13]; first compound 0.4 µM) was 0.867 and the relative viability ([13]; first compound 1.265 µM) was 0.713. The relative viability ([13]; first compound 4 µM) was 0.637, the relative viability ([14]; first compound 0.04 µM) was 0.975 and the relative viability ([14]; first compound 0.1265 µM) was 1.07. The relative viability ([14]; first compound 0.4 µM) was 1.06, the relative viability ([14]; first compound 1.265 µM) was 0.864 and the relative viability ([14]; first compound 4 µM) was 0.985. For the same compound, the relative viability ([15]; first compound 0.04 µM) was 0.939, the relative viability ([15]; first compound 0.1265 µM) was 0.821 and the relative viability ([15]; first compound 0.4 µM) was 0.824. For the same compound, the relative viability ([15]; first compound 1.265 µM) was 0.829, the relative viability ([15]; first compound 4 µM) was 0.785 and the relative viability ([16]; first compound 0.04 µM) was 0.821. It also gave a relative viability ([16]; first compound 0.1265 µM) of 0.747, a relative viability ([16]; first compound 0.4 µM) of 0.87 and a relative viability ([16]; first compound 1.265 µM) of 0.691. It also gave a relative viability ([16]; first compound 4 µM) of 0.711, a relative viability ([17]; first compound 0.04 µM) of 0.747 and a relative viability ([17]; first compound 0.1265 µM) of 0.684. The relative viability ([17]; first compound 0.4 µM) was 0.743, the relative viability ([17]; first compound 1.265 µM) was 0.685 and the relative viability ([17]; first compound 4 µM) was 0.689. The relative viability ([18]; first compound 0.04 µM) was 0.994, the relative viability ([18]; first compound 0.1265 µM) was 0.994 and the relative viability ([18]; first compound 0.4 µM) was 1.15. The relative viability ([18]; first compound 1.265 µM) was 1.12, the relative viability ([18]; first compound 4 µM) was 1.04 and the relative viability ([19]; first compound 0.04 µM) was 1.11. For the same compound, the relative viability ([19]; first compound 0.1265 µM) was 1.05, the relative viability ([19]; first compound 0.4 µM) was 1.19 and the relative viability ([19]; first compound 1.265 µM) was 1.1. For the same compound, the relative viability ([19]; first compound 4 µM) was 1.05, the relative viability ([20]; first compound 0.04 µM) was 0.86 and the relative viability ([20]; first compound 0.1265 µM) was 0.777. The relative viability ([20]; first compound 0.4 µM) was 0.861, the relative viability ([20]; first compound 1.265 µM) was 0.81 and the relative viability ([20]; first compound 4 µM) was 0.811. The relative viability ([21]; first compound 0.04 µM) was 0.913, the relative viability ([21]; first compound 0.1265 µM) was 0.932 and the relative viability ([21]; first compound 0.4 µM) was 0.816. It also gave a relative viability ([21]; first compound 1.265 µM) of 0.979, a relative viability ([21]; first compound 4 µM) of 1.07 and a relative viability ([22]; first compound 0.04 µM) of 1.11. For the same compound, the relative viability ([22]; first compound 0.1265 µM) was 0.849, the relative viability ([22]; first compound 0.4 µM) was 0.912 and the relative viability ([22]; first compound 1.265 µM) was 0.807. The relative viability ([22]; first compound 4 µM) was 0.868.
